Laboratory results published in patent US20200270309A1, “MALEIMIDE GROUP-MODIFIED ANGIOGENESIS INHIBITOR HM-1 AND USE THEREOF” (NANJING ANJI BIOLOGICAL TECHNOLOGY CO., LTD, priority 2017, published 2020).
Marks after values point to notes of the source that are not given here. Peptide text beside a SMILES is read from it. * marks the point of attachment. X55 = O=C1C=CC(=O)N1c1ccccc1CCCCCCCCC(=O)*; X52 = O=C1C=CC(=O)N1c1ccccc1CCCCCCCC(=O)*

Assays:
[1] = Half-lives and pharmacokinetic parameters of polypeptides vs HM-1; settings: in vivo; for half-life: T1/2β (half-life)
[2] = tested on: choroidal neovascularization; assay: Choroidal neovascularization in rats (laser photocoagulation, FFA); format: in vivo; settings: BN rats
Method: 6-8 weeks male BN rats were fully anesthetized by intraperitoneal injection of 846 compound anesthetic with a concentration of 0.5 mL/kg. Compound tropicamide eye drops were used once 5 min before laser photocoagulation to fully dilate the pupils of both eyes. The animals were fixed and subjected to krypton laser photocoagulation equidistantly around an optic disc with the aid of a −53.00D corneal contact lens at a distance of 2PD from the optic disc. A total of 8 photocoagulation spots were obtained. The laser wavelength was 647.1 nm, the power was 350 mW, and the diameter and time of the photocoagulation spots were 50 μm and 0.05 s respectively. Fundus photography was performed immediately after photocoagulation. FFA, histopathology and transmission electron microscopy were performed on the days 3, 7, 14, 21 and 28 after photocoagulation respectively.
Through fundus photography and FFA examination, it was confirmed that the fluorescein leakage of the photocoagulation spot reached its peak on day 21 after photocoagulation. At the same time, histopathological examination was carried out.
Rats with successful modeling were randomly grouped, with 5 rats in each group. The groups were marked as a negative control group and X1-X90 treatment groups respectively. The rats were injected with normal saline and X1-X90 (the doses of X1-X90 were each 0.05 μM) in the vitreous chamber once a day for 1 week. FFA examination was carried out 3 days, 7 days, 14 days and 28 days after administration.

HUVECs = assay: Transwell migration inhibition on HUVECs; format: cell-based, human; settings: for Inhibition rate (%): HUVEC migration vs blank control; for Cell migration number (Mean ± SD): HUVECs, transwell, 24 h
[3] = tested on: xylene-induced ear swelling; assay: Xylene-induced mouse ear swelling; format: in vivo; settings: Kunming mice, injected once a day for 5 days; for Inhibition rate (%): xylene-induced ear swelling
Method: Kunming mice were taken, a normal saline group was taken as a blank control group, an aspirin group (200 mg/kg) was taken as a positive control group, and X1-X90 administration groups were taken as test groups. The mice were injected once a day for 5 consecutive days. The blank control group was given an equal volume of normal saline. One hour after the last administration, 0.05 mL of xylene was applied to both sides of the right ear of each mouse to cause inflammation, while no drug was applied to the left ear as a normal ear. Two hours later, the mice were put to death by dislocation. Two ears were cut along the auricle. Ear pieces were taken with a puncher and weighed, and the swelling degree and the swelling rate were calculated. Swelling degree=right ear piece weight-left ear piece weight, swelling rate=(swelling degree/left ear piece weight)*100%. Statistical t-test was conducted on the experimental results. *P<0.05 indicates significant difference, and **P<0.01 indicates extremely significant difference.

[4] = tested on: retinal neovascularization (OIR model); assay: Retinal vessels in OIR mice; format: in vivo, C57/B16 mice; settings: for Area of neovascular plexus (mm^2): dose 0.05 μM in the vitreous chamber on day 13, retinal vessels evaluated on day 17; for Inhibition rate (%): dose 0.05 μM in the vitreous chamber on day 13, retinal vessels evaluated on day 17, vs negative control
Excerpt: Establishment of an OIR model: Young mice and their mothers were exposed in a 75% hyperoxic environment from day 7 to day 12 after the birth of C57/B16 mice, which caused capillaries in their central retina to disappear rapidly. The mice were returned to the indoor air on day 12, retinal vessels exposed to hyperoxia quickly disappeared, causing extensive abnormal neoangiogenesis, and the central part of the retina remained largely avascular for a long time. After the blood vessels disappeared completely, the mice were injected with normal saline (a negative group), X1-X12, X13-X44, X45-X90 in the vitreous chamber on day 13 respectively, and retinal vessels were evaluated on day 17 ([…] of Texas red labeled tomato agglutinin was injected into the left ventricle to mark unclosed vessels and circulated for 5 min).

[5] = tested on: collagen-induced arthritis; assay: Mouse collagen-induced arthritis (CIA) animal model; format: in vivo; settings: DBA/1 mice CIA model, dose 4.0 mg/kg, subcutaneous from day 30, n=10; for Clinical score: highest score 16
[6] = tested on: corneal neovascularization; assay: Corneal neovascularization induced by alkali burn in BALB/c mice; format: in vivo; set-up: Inhibition rate (corneal neovascularization): concentration or dose not given beside the values; settings: day 14 after alkali burn, vitreous injection once a day for 1 week
[7] = tested on: human retinal capillary endothelial cells (HRCECs); assay: MTT proliferation inhibition on HRCECs; format: cell-based; settings: 48 h; for A570 nm-A630 nm: mean±SD
Method: An MTT method was used to detect the inhibitory activity of the angiogenesis inhibitor polypeptide on proliferation of HRCECs. HRCECs were digested and collected with trypsin after being cultured in an incubator at 37° C. with 5% CO2 to a density of 90% or more. The cells were resuspended with a culture solution and counted under a microscope, the cell concentration was adjusted to 3.0×10^4 cells/mL, and the cell suspension was inoculated into a 96-well plate at 100 μL/well, and cultured overnight in an incubator at 37° C. with 5% CO2. After the cells were completely adhered to the wall, cells with the addition of the angiogenesis inhibitor polypeptide were used as administration groups, cells with the addition of Avastin were used as a positive control group, and cells with the addition of culture solution without any drugs were used as a blank control group. The cells were diluted to respective predetermined concentrations with the culture solution. The diluent were added into 96-well plates respectively at 100 μL per well, and the cells were cultured at 37° C. for 48 h in an incubator with 5% CO2. 20 μL of 5 mg/mL MTT was added into each well of the 96-well plate, and the cultivation was continued for 4 h. The culture medium was removed, and 100 μL of DMSO was added to each well for dissolution. The absorbance was measured at a detection wavelength of 570 nm and a reference wavelength of 630 nm using a microplate reader, and the PIR was calculated by the formula as follows:
PIR (%)=1−administration group/negative group
The experiment was repeated independently three times. The results were expressed as mean±SD, and statistical T test was conducted. *P<0.05 indicates significant difference, and **P<0.01 indicates extremely significant difference.

[8] = day 3 after administration, total light spot number was 297, 0.05 μM in the vitreous chamber once a day for 1 week
[9] = day 7 after administration, total light spot number was 186, 0.05 μM in the vitreous chamber once a day for 1 week
[10] = day 14 after administration, total light spot number was 137, 0.05 μM in the vitreous chamber once a day for 1 week
[11] = day 28 after administration, total light spot number was 69, 0.05 μM in the vitreous chamber once a day for 1 week
[12] = dose 2 mg/kg, right minus left ear piece weight 2 h after xylene
[13] = dose 4 mg/kg, right minus left ear piece weight 2 h after xylene
[14] = dose 8 mg/kg, right minus left ear piece weight 2 h after xylene

Structure (SMILES) | AUC(0-inf) [1] [ng·h/mL] | MRT inf [1] [h] | clearance [1] [mL/min/kg] | half-life [1] [min] | CNV Incidence (%) [2, 8] [%] | Leakage Light spot number [2, 8] | CNV Incidence (%) [2, 9] [%] | Leakage Light spot number [2, 9] | CNV Incidence (%) [2, 10] [%] | Leakage Light spot number [2, 10] | CNV Incidence (%) [2, 11] [%] | Leakage Light spot number [2, 11] | Inhibition rate (%) (HUVECs; dose 0.05 μM) | Inhibition rate (%) (HUVECs; dose 0.1 μM) | Inhibition rate (%) (HUVECs; dose 0.2 μM) | Inhibition rate (%) ([3]; dose 2 mg/kg) | Swelling degree (mg) [3, 13] | Inhibition rate (%) ([3]; dose 4 mg/kg) | Swelling degree (mg) [3, 14] | Inhibition rate (%) ([3]; dose 8 mg/kg) | further results
C[C@H](NC(=O)CNC(=O)[C@H](CCCNC(=N)N)NC(=O)CCCCCCCc1ccccc1N1C(=O)C=CC1=O)C(=O)N[C@@H](CC(=O)O)C(=O)N[C@@H](CCCNC(=N)N)C(=O)N[C@@H](C)C(=O)NCC(=O)NCC(=O)NCC(=O)NCC(=O)N[C@@H](CCCNC(=N)N)C(=O)NCC(=O)N[C@@H](CC(=O)O)C(=O)O [X19] (X52-RGADRAGGGGRGD-OH) | 32200 ± 6970 | 57.6 ± 10.8 | 0.518 | 2397 ± 16.8 | 52.19 | 155 | 45.70 | 85 | 41.61 | 57 | 44.93 | 31 | 40.99 | 46.77 | 54.44 | 20.06 | 3.97 ± 0.61** mg | 36.28 | 3.8 ± 0.03** mg | 39.00 | Swelling degree (mg) [3, 12]: 4.98 ± 0.72* mg; Area of neovascular plexus (mm^2) [4]: 0.083 ± 0.019 mm^2; Inhibition rate (%) [4]: 60.85%**; Joint swelling degree (mm) [5]: 0.84 ± 0.18 mm; Left and right paw swelling degree (mm) [5]: 0.82 ± 0.14 mm; Clinical score [5]: 8.72 ± 1.41; Inhibition rate (corneal neovascularization) [6]: 41.43%; MVD (corneal microvessel density) [6]: 39.38 ± 4.833; Inhibition rate (%) ([7]; dose 0.05 μM): 51.03%*; A570 nm-A630 nm ([7]; dose 0.05 μM): 0.6472 ± 0.01829; Inhibition rate (%) ([7]; dose 0.1 μM): 63.29%**; A570 nm-A630 nm ([7]; dose 0.1 μM): 0.4852 ± 0.07133; Inhibition rate (%) ([7]; dose 0.2 μM): 64.71%*; A570 nm-A630 nm ([7]; dose 0.2 μM): 0.4664 ± 0.01886
C[C@H](NC(=O)CNC(=O)[C@H](CCCNC(=N)N)NC(=O)CCCCCCCCc1ccccc1N1C(=O)C=CC1=O)C(=O)N[C@@H](CC(=O)O)C(=O)N[C@@H](CCCNC(=N)N)C(=O)N[C@@H](C)C(=O)NCC(=O)NCC(=O)NCC(=O)NCC(=O)N[C@@H](CCCNC(=N)N)C(=O)NCC(=O)N[C@@H](CC(=O)O)C(=O)O [X20] (X55-RGADRAGGGGRGD-OH) | 31800 ± 8320 | 57.1 ± 12.9 | 0.523 | 2374 ± 16.8 | 52.53 | 156 | 48.92 | 91 | 42.34 | 58 | 39.13 | 27 | 47.45 | 49.79 | 52.70 | 8.19 | 3.78 ± 0.88** mg | 39.33 | 3.47 ± 0.07** mg | 44.30 | Cell migration number (Mean ± SD) (HUVECs; dose 0.05 μM): 563.29 ± 41.22; Cell migration number (Mean ± SD) (HUVECs; dose 0.1 μM): 538.18 ± 64.13; Cell migration number (Mean ± SD) (HUVECs; dose 0.2 μM): 506.96 ± 57.65; Swelling degree [3, 12]: 5.72 ± 0.01 mg; Area of neovascular plexus (mm^2) [4]: 0.118 ± 0.014 mm^2; Inhibition rate (%) [4]: 44.34%*; Joint swelling degree (mm) [5]: 0.82 ± 0.17 mm; Left and right paw swelling degree (mm) [5]: 0.74 ± 0.14 mm; Clinical score [5]: 9.07 ± 1.33; Inhibition rate (corneal neovascularization) [6]: 44.62%; MVD (corneal microvessel density) [6]: 37.24 ± 6.113; Inhibition rate (%) ([7]; dose 0.05 μM): 44.28%*; A570 nm-A630 nm ([7]; dose 0.05 μM): 0.7365 ± 0.05032; Inhibition rate (%) ([7]; dose 0.1 μM): 46.12%**; A570 nm-A630 nm ([7]; dose 0.1 μM): 0.7121 ± 0.0349; Inhibition rate (%) ([7]; dose 0.2 μM): 60.14%*; A570 nm-A630 nm ([7]; dose 0.2 μM): 0.5268 ± 0.01299
